Test results as given in patent US7553966B2, “Glucocorticoid mimetics, methods of making them, pharmaceutical compositions, and uses thereof” (Boehringer Ingelheim Pharmaceuticals, Inc., priority 2002, dated 2009).

What was measured:
[1] = test system: glucocorticoid receptor; experiment: Glucocorticoid Receptor Cell Assays (agonist activity in one or more of the above assays); assay type: cell-based; settings: qualitative statement; assay not specified
[2] = target: T1, human glucocorticoid receptor (GR) complex (Homo sapiens, UniProt P04150); experiment: Glucocorticoid Receptor Competitive Binding Assay (fluorescence polarization, TAMRA-labeled dexamethasone probe); settings: qualitative statement; competition with TAMRA-labeled dexamethasone
T1 construct: made in house; host or cells: insect expression system (baculovirus lysate)
T1 sequence (P04150 1-777): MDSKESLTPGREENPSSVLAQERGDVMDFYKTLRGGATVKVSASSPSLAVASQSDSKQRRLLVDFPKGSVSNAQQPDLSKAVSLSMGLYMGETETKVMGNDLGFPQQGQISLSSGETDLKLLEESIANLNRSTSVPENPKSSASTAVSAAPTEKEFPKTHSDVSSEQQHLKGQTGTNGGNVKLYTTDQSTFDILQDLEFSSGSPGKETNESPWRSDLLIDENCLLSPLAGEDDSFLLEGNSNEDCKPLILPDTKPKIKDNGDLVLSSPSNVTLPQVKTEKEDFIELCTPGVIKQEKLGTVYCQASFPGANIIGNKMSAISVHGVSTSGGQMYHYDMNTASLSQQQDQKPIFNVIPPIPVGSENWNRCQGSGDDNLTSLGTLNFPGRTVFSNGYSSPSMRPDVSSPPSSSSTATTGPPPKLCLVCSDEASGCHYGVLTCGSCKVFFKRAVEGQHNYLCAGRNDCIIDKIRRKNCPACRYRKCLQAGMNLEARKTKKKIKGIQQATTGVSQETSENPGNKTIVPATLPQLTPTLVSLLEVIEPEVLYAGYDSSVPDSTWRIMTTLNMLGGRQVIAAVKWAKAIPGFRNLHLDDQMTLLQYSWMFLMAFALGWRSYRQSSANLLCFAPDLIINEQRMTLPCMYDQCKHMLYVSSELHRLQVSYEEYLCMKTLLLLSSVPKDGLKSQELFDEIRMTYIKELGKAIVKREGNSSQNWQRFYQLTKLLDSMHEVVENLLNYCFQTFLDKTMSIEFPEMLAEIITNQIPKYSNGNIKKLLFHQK
In short: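 Competition with TAMRA-dexamethasone for a human GR complex expressed in insect cells, read by fluorescence polarization. Buffer was 10 mM TES, 50 mM KCl, 20 mM Na2MoO4, 1.5 mM EDTA, 0.04% CHAPS, 10% glycerol, 1 mM DTT, pH 7.4.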

Compound	activity in the GR binding assay [2]	activity as agonists of the glucocorticoid receptor function in one or more of the above assays [1]
CC(C)(CC(O)(Cc1[nH]c2ccccc2c1C#N)C(F)(F)F)c1cc(Br)cc2c1OCC2 (centres unmarked) [2-[4-(5-Bromo-2,3-dihydrobenzofuran-7-yl)-2-hydroxy-4-methyl-2-trifluoromethylpentyl]-1H-indole-3-carbonitrile]	potent activity	potent agonists
CC(C)(CC(O)(Cc1cc2cc(C#N)ccc2[nH]1)C(F)(F)F)c1ccccc1 (centres unmarked) [2-(2-Hydroxy-4-methyl-4-phenyl-2-trifluoromethylpentyl)-1H-indole-5-carbonitrile]	potent activity	potent agonists
CC(C)(CC(O)(Cc1cc2ccccc2[nH]1)C(F)(F)F)c1cccc(C(F)(F)F)c1 (centres unmarked) [1,1,1-Trifluoro-2-(1H-indol-2-ylmethyl)-4-methyl-4-(3-trifluoromethylphenyl)pentan-2-ol]	potent activity	potent agonists
COc1ccc(F)cc1C(C)(C)CC(O)(Cc1[nH]c2ccccc2c1C#N)C(F)(F)F (centres unmarked) [2-[4-(5-Fluoro-2-methoxyphenyl)-2-hydroxy-4-methyl-2-trifluoromethylpentyl]-1H-indole-3-carbonitrile]	potent activity	potent agonists
COc1ccc(F)cc1C(C)(C)CC(O)(Cc1cc2ccncc2[nH]1)C(F)(F)F (centres unmarked) [1,1,1-Trifluoro-4-(5-fluoro-2-methoxyphenyl)-4-methyl-2-(1H-pyrrolo[2,3-c]pyridin-2-ylmethyl)pentan-2-ol]	potent activity	potent agonists

Further lines, with some results ahead:

activity in the GR binding assay [2]	Compound	activity as agonists of the glucocorticoid receptor function in one or more of the above assays [1]
potent activity	CC(C)(CC(O)(Cc1cc2cnccc2[nH]1)C(F)(F)F)c1cccc2c1OCC2 (centres unmarked) [4-(2,3-Dihydrobenzofuran-7-yl)-1,1,1-trifluoro-4-methyl-2-(1H-pyrrolo[3,2-c]pyridin-2-ylmethyl)pentan-2-ol]	potent agonists
potent activity	Cc1ccc(F)cc1C(C)(C)CC(O)(Cc1cc2cc(C#N)ccc2[nH]1)C(F)(F)F (centres unmarked) [2-[4-(5-Fluoro-2-methylphenyl)-2-hydroxy-4-methyl-2-trifluoromethylpentyl]-1H-indole-5-carbonitrile]	potent agonists
